Columns and labels:
Type in all cases: functional, Mus musculus
J774.A1 [1] = assay: Percent inhibition of nitrite release in lipopolysaccharide (LPS) treated J774.A1 macrophage cell lines at concentration of 1E-5M
J774.A1 [2] = assay: Percent inhibition of nitrite release in lipopolysaccharide (LPS) treated J774.A1 macrophage cell lines at concentration of 1E-6M
J774.A1 [3] = assay: Percent inhibition of nitrite release in lipopolysaccharide (LPS) treated J774.A1 macrophage cell lines at concentration of 1E-7M
J774.A1 [4] = assay: Percent inhibition of nitrite release in lipopolysaccharide (LPS) treated J774.A1 macrophage cell lines at concentration of 1E-8M
J774.A1 [5] = assay: Percent inhibition of nitrite release in lipopolysaccharide (LPS) treated J774.A1 macrophage cell lines at concentration of 1E-3 M

Structure (SMILES) | Inhibition (J774.A1 [1]) | Inhibition (J774.A1 [2]) | Inhibition (J774.A1 [3]) | Inhibition (J774.A1 [4]) | Inhibition (J774.A1 [5])
CN/C(=N/Cc1ccccc1)SC | -54.53% | -9.54% | -5.96% | -2.65% | –
CCS/C(=N\C)Nc1ccc(Cl)cc1 | 10.45% | 0.5% | – | – | 54.05%
CCS/C(=N\C)Nc1cccc(F)c1 | 10.21% | 6.23% | – | – | 59.45%
CN/C(=N\c1ccc(Cl)cc1)SC | 7.55% | 2.9% | – | – | 69.05%
C/N=C(/Nc1ccccc1F)SC(C)C | 9.91% | 2.76% | – | – | 67.71%
CN/C(=N\c1ccccc1Cl)SC | 4.67% | 2.9% | – | – | 21.32%
CCS/C(=N\C)Nc1ccc(C)cc1 | 0% | 0% | – | – | 56.82%
CN/C(=N\c1ccccc1)SC | 8.65% | 5.1% | – | – | 65%
CCCS/C(=N\C)Nc1ccc(C)cc1 | 2.08% | 1.54% | – | – | 83.42%
C/N=C(/Nc1ccccc1Cl)SC(C)C | 8.69% | 3.21% | – | – | 16.21%
CN/C(=N\c1cccc(Cl)c1)SC | 12.33% | 4.06% | – | – | 45.38%
CCCS/C(=N\C)Nc1ccccc1 | 15.7% | 4.65% | – | – | 65.78%
C/N=C(/Nc1ccccc1)SC(C)C | 19.75% | 13.21% | – | – | 81.5%
CCCS/C(=N\C)Nc1ccccc1C | 11.45% | 8.12% | – | – | 81.01%
C/N=C(/Nc1cccc(F)c1)SC(C)C | 10.04% | 4.23% | – | – | 66.98%
C/N=C(/Nc1ccc(C)cc1)SC(C)C | 28.11% | 39.8% | – | – | 73.14%
CCS/C(=N\C)Nc1ccccc1F | 9.76% | 3.02% | – | – | 40.01%
CCCS/C(=N\C)Nc1cccc(F)c1 | 11.11% | 7% | – | – | 53.91%
CCS/C(=N\C)Nc1ccc(F)cc1 | 9.45% | 5.98% | – | – | 60.56%
CCCS/C(=N\C)NCc1ccccc1 | -39.58% | -33.71% | -31.36% | -7.96% | –
CCS/C(=N\C)Nc1ccccc1C | 15.33% | 7.44% | – | – | 65.21%
C/N=C(/Nc1ccccc1C)SC(C)C | 18.78% | 13.56% | – | – | 85.21%

Structure (SMILES) | Inhibition (J774.A1 [1]) | Inhibition (J774.A1 [2]) | Inhibition (J774.A1 [3]) | Inhibition (J774.A1 [4]) | Inhibition (J774.A1 [5])
CCCS/C(=N\C)Nc1ccc(F)cc1 | 10.67% | 4% | – | – | 53.45%
CCS/C(=N\C)Nc1ccccc1 | 2.67% | 1.67% | – | – | 76.76%
CCCS/C(=N\C)Nc1cccc(Cl)c1 | 9.34% | 5.01% | – | – | 58.45%
C/N=C(/Nc1ccc(Cl)cc1)SC(C)C | 7.09% | 8.21% | – | – | 48.09%
CCCS/C(=N\C)Nc1ccccc1Cl | 9.55% | 1.1% | – | – | 11.45%
CCS/C(=N\C)Nc1ccccc1Cl | 10.21% | 2.9% | – | – | 19.55%
COC(=O)[C@@H](N)CCCNC(=N)N[N+](=O)[O-] [L-NAME] | 20.37% | 12.8% | – | – | 69.49%
CCCS/C(=N\C)Nc1cccc(C)c1 | 12.09% | 8.31% | – | – | 78.34%
CCS/C(=N\C)NCc1ccccc1 | -26.84% | -23.65% | -2.41% | -7.28% | –
C/N=C(/Nc1cccc(Cl)c1)SC(C)C | 8% | 7.09% | – | – | 46.9%
CCCS/C(=N\C)Nc1ccccc1F | 11.26% | 4.15% | – | – | 65.61%
C/N=C(/Nc1cccc(C)c1)SC(C)C | 18.55% | 19.89% | – | – | 68.77%
CN/C(=N\c1cccc(C)c1)SC | 15.34% | 7.03% | – | – | 75%
CCS/C(=N\C)Nc1cccc(C)c1 | 14.02% | 6.79% | – | – | 81.03%
CCCS/C(=N\C)Nc1ccc(Cl)cc1 | 5.08% | 1.1% | – | – | 50.04%
C/N=C(/Nc1ccc(F)cc1)SC(C)C | 9.03% | 4.76% | – | – | 61.45%
CN/C(=N\c1ccccc1C)SC | 17.45% | 8.32% | – | – | 75.1%
CN/C(=N\c1ccccc1F)SC | 6.01% | 1.56% | – | – | 52.45%
CCS/C(=N\C)Nc1cccc(Cl)c1 | 11.56% | 3.44% | – | – | 41.56%
CN/C(=N\c1cccc(F)c1)SC | 9.34% | 5.23% | – | – | 66.9%
CN/C(=N\c1ccc(C)cc1)SC | 18.1% | 4.67% | – | – | 67.8%

— ChEMBL document CHEMBL1144266, “Synthesis and biological evaluation of 3-benzyl-1-methyl- and 1-methyl-3-phenyl-isothioureas as potential inhibitors of iNOS” (2005)
